Laboratory results from patent US6358885B1, “Substituted phenylheterocyclic herbicides” (Mississippi State University, priority 1992, dated 2002).

How the values were obtained:
lambsquarters = assay: Test B preemergence/postemergence greenhouse plant response rating 0 to 10; format: in vivo, Chenopodium album; settings: 0 to 10 scale
Summary of the method: (§1)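 Test chemicals, dissolved in a non-phytotoxic solvent, were applied to soil at planting and, at the same time, over foliage of seedlings at the one to four leaf stage.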

rice = assay: as above; format: in vivo, Oryza sativa; settings: 0 to 10 scale
Summary of the method: as §1

soybean = assay: as above; format: in vivo, Glycine max; settings: 0 to 10 scale
Summary of the method: as §1

wheat = assay: as above; format: in vivo, Triticum aestivum; settings: 0 to 10 scale
Summary of the method: as §1

wild buckwheat [1] = assay: as above; format: in vivo, Polygonum convolvulus; settings: 0 to 10 scale
Summary of the method: as §1

wild oat = assay: as above; format: in vivo, Avena fatua; settings: 0 to 10 scale
Summary of the method: as §1

blackgrass = assay: Test C preemergence/postemergence greenhouse plant response rating 0 to 100; format: in vivo, Alopecurus myosuroides; settings: POSTEMERGENCE; for Plant response rating, Blackgrass: 0 to 100 scale
Summary of the method: (§2)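 Compounds in non-phytotoxic solvent went onto sandy loam before emergence (seeded one day earlier) or onto plants at the one-to-four leaf stage. Duck salad was treated via flood water (~2.5 cm, maintained) over silt loam.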

downy brome = assay: as above; format: in vivo, Bromus tectorum; settings: POSTEMERGENCE; for Plant response rating Downy Brome: 0 to 100 scale
Summary of the method: as §2

sorghum = assay: as above; format: in vivo, Sorghum bicolor; settings: POSTEMERGENCE; for Plant response rating, Sorghum: 0 to 100 scale
Summary of the method: as §2

sugar beet = assay: as above; format: in vivo, Beta vulgaris; settings: POSTEMERGENCE; for Plant response rating, Sugar beet: 0 to 100 scale
Summary of the method: as §2

wild buckwheat [2] = assay: as above; format: in vivo, Polygonum convolvulus; settings: POSTEMERGENCE; for Plant response rating, Wild buckwheat: 0 to 100 scale
Summary of the method: as §2

barnyardgrass = assay: Test C flood test plant response rating 0 to 100; format: in vivo, Echinochloa crus-galli; settings: for Plant response rating Barnyardgrass 2: flood test species listed under POSTEMERGENCE, 0 to 100 scale
Summary of the method: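 Compounds in non-phytotoxic solvent applied preemergence to sandy loam one day after planting, postemergence at the 1–4 leaf stage, or to ~2.5 cm floodwater over silt loam.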

[3] = POSTEMERGENCE section, flood test, Rate 4 g/ha
[4] = Rate 16 g/ha, under POSTEMERGENCE head (flood test species)

CC(C)OC(=O)c1cc(-c2nn3c(c2Cl)CCCC3)c(F)cc1Cl [Compound 44]
Plant response rating, Lambsquarter (lambsquarters; POSTEMERGENCE, Rate 50 g/ha): 10
Plant response rating, Lambsquarter (lambsquarters; PREEMERGENCE, Rate 50 g/ha): 10
Plant response rating, Lambsquarter (lambsquarters; Rate 200 g/ha, POSTEMERGENCE): 10
Plant response rating, Lambsquarter (lambsquarters; Rate 200 g/ha, PREEMERGENCE): 10
Plant response rating, Rice (rice; POSTEMERGENCE, Rate 50 g/ha): 5
Plant response rating, Rice (rice; PREEMERGENCE, Rate 50 g/ha): 1
Plant response rating, Rice (rice; Rate 200 g/ha, POSTEMERGENCE): 9
Plant response rating, Rice (rice; Rate 200 g/ha, PREEMERGENCE): 2
Plant response rating, Soybean (soybean; POSTEMERGENCE, Rate 50 g/ha): 8
Plant response rating, Soybean (soybean; PREEMERGENCE, Rate 50 g/ha): 0
Plant response rating, Soybean (soybean; Rate 200 g/ha, POSTEMERGENCE): 8
Plant response rating, Soybean (soybean; Rate 200 g/ha, PREEMERGENCE): 3
Plant response rating, Wheat (wheat; POSTEMERGENCE, Rate 50 g/ha): 6
Plant response rating, Wheat (wheat; PREEMERGENCE, Rate 50 g/ha): 3
Plant response rating, Wheat (wheat; Rate 200 g/ha, POSTEMERGENCE): 6
Plant response rating, Wheat (wheat; Rate 200 g/ha, PREEMERGENCE): 3
Plant response rating, Wild buckwheat (wild buckwheat [1]; POSTEMERGENCE, Rate 50 g/ha): 10
Plant response rating, Wild buckwheat (wild buckwheat [1]; PREEMERGENCE, Rate 50 g/ha): 9
Plant response rating, Wild buckwheat (wild buckwheat [1]; Rate 200 g/ha, POSTEMERGENCE): 10
Plant response rating, Wild buckwheat (wild buckwheat [1]; Rate 200 g/ha, PREEMERGENCE): 9
Plant response rating, Wild oat (wild oat; POSTEMERGENCE, Rate 50 g/ha): 5
Plant response rating, Wild oat (wild oat; PREEMERGENCE, Rate 50 g/ha): 4
Plant response rating, Wild oat (wild oat; Rate 200 g/ha, POSTEMERGENCE): 8
Plant response rating, Blackgrass (blackgrass; 62 g/ha): 60
Plant response rating, Blackgrass (blackgrass; 250 g/ha): 80
Plant response rating (0 to 100), Blackgrass (blackgrass; Rate 4 g/ha): 30
Plant response rating (0 to 100), Blackgrass (blackgrass; Rate 16 g/ha): 40
Plant response rating Downy Brome (downy brome; 62 g/ha): 50
Plant response rating Downy Brome (downy brome; 250 g/ha): 90
Plant response rating (0 to 100), Downy Brome (downy brome; Rate 4 g/ha): 20
Plant response rating (0 to 100), Downy Brome (downy brome; Rate 16 g/ha): 40
Plant response rating, Sorghum (sorghum; 62 g/ha): 60
Plant response rating, Sorghum (sorghum; 250 g/ha): 100
Plant response rating (0 to 100), Sorghum (sorghum; Rate 4 g/ha): 30
Plant response rating (0 to 100), Sorghum (sorghum; Rate 16 g/ha): 40
Plant response rating, Sugar beet (sugar beet; 62 g/ha): 100
Plant response rating, Sugar beet (sugar beet; 250 g/ha): 100
Plant response rating (0 to 100), Sugar beet (sugar beet; Rate 4 g/ha): 80
Plant response rating (0 to 100), Sugar beet (sugar beet; Rate 16 g/ha): 100
Plant response rating, Wild buckwheat (wild buckwheat [2]; 62 g/ha): 100
Plant response rating, Wild buckwheat (wild buckwheat [2]; 250 g/ha): 100
Plant response rating (0 to 100), Wild buckwheat (wild buckwheat [2]; Rate 4 g/ha): 70
Plant response rating (0 to 100), Wild buckwheat (wild buckwheat [2]; Rate 16 g/ha): 90
Plant response rating (0 to 100), Barnyardgrass 2 (barnyardgrass; [3]): 65
Plant response rating (0 to 100), Barnyardgrass 2 (barnyardgrass; [4]): 100
Plant response rating Barnyardgrass 2 (barnyardgrass; 62 g/ha): 100
Plant response rating Barnyardgrass 2 (barnyardgrass; 250 g/ha): 100

CCC(C)Oc1cc(-c2nn3c(c2Cl)CCCC3)c(F)cc1Cl (stereo not shown) [Compound 48]
Plant response rating, Lambsquarter (lambsquarters; POSTEMERGENCE, Rate 50 g/ha): 10
Plant response rating, Lambsquarter (lambsquarters; PREEMERGENCE, Rate 50 g/ha): 10
Plant response rating, Lambsquarter (lambsquarters; Rate 200 g/ha, POSTEMERGENCE): 10
Plant response rating, Lambsquarter (lambsquarters; Rate 200 g/ha, PREEMERGENCE): 10
Plant response rating, Rice (rice; POSTEMERGENCE, Rate 50 g/ha): 3
Plant response rating, Rice (rice; PREEMERGENCE, Rate 50 g/ha): 1
Plant response rating, Rice (rice; Rate 200 g/ha, POSTEMERGENCE): 8
Plant response rating, Rice (rice; Rate 200 g/ha, PREEMERGENCE): 2
Plant response rating, Soybean (soybean; POSTEMERGENCE, Rate 50 g/ha): 7
Plant response rating, Soybean (soybean; PREEMERGENCE, Rate 50 g/ha): 0
Plant response rating, Soybean (soybean; Rate 200 g/ha, POSTEMERGENCE): 7
Plant response rating, Soybean (soybean; Rate 200 g/ha, PREEMERGENCE): 0
Plant response rating, Wheat (wheat; POSTEMERGENCE, Rate 50 g/ha): 5
Plant response rating, Wheat (wheat; PREEMERGENCE, Rate 50 g/ha): 0
Plant response rating, Wheat (wheat; Rate 200 g/ha, POSTEMERGENCE): 6
Plant response rating, Wheat (wheat; Rate 200 g/ha, PREEMERGENCE): 2
Plant response rating, Wild buckwheat (wild buckwheat [1]; POSTEMERGENCE, Rate 50 g/ha): 10
Plant response rating, Wild buckwheat (wild buckwheat [1]; PREEMERGENCE, Rate 50 g/ha): 9
Plant response rating, Wild buckwheat (wild buckwheat [1]; Rate 200 g/ha, POSTEMERGENCE): 9
Plant response rating, Wild buckwheat (wild buckwheat [1]; Rate 200 g/ha, PREEMERGENCE): 10
Plant response rating, Wild oat (wild oat; POSTEMERGENCE, Rate 50 g/ha): 4
Plant response rating, Wild oat (wild oat; PREEMERGENCE, Rate 50 g/ha): 0
Plant response rating, Wild oat (wild oat; Rate 200 g/ha, POSTEMERGENCE): 6
Plant response rating, Blackgrass (blackgrass; 62 g/ha): 50
Plant response rating, Blackgrass (blackgrass; 250 g/ha): 60
Plant response rating (0 to 100), Blackgrass (blackgrass; Rate 4 g/ha): 20
Plant response rating (0 to 100), Blackgrass (blackgrass; Rate 16 g/ha): 30
Plant response rating Downy Brome (downy brome; 62 g/ha): 40
Plant response rating Downy Brome (downy brome; 250 g/ha): 70
Plant response rating (0 to 100), Downy Brome (downy brome; Rate 4 g/ha): 0
Plant response rating (0 to 100), Downy Brome (downy brome; Rate 16 g/ha): 20
Plant response rating, Sorghum (sorghum; 62 g/ha): 50
Plant response rating, Sorghum (sorghum; 250 g/ha): 70
Plant response rating (0 to 100), Sorghum (sorghum; Rate 4 g/ha): 30
Plant response rating (0 to 100), Sorghum (sorghum; Rate 16 g/ha): 40
Plant response rating, Sugar beet (sugar beet; 62 g/ha): 100
Plant response rating, Sugar beet (sugar beet; 250 g/ha): 100
Plant response rating (0 to 100), Sugar beet (sugar beet; Rate 4 g/ha): 100
Plant response rating (0 to 100), Sugar beet (sugar beet; Rate 16 g/ha): 100
Plant response rating, Wild buckwheat (wild buckwheat [2]; 62 g/ha): 100
Plant response rating, Wild buckwheat (wild buckwheat [2]; 250 g/ha): 100
Plant response rating (0 to 100), Wild buckwheat (wild buckwheat [2]; Rate 4 g/ha): 60
Plant response rating (0 to 100), Wild buckwheat (wild buckwheat [2]; Rate 16 g/ha): 85
Plant response rating (0 to 100), Barnyardgrass 2 (barnyardgrass; [3]): 20
Plant response rating (0 to 100), Barnyardgrass 2 (barnyardgrass; [4]): 40
Plant response rating Barnyardgrass 2 (barnyardgrass; 62 g/ha): 95
Plant response rating Barnyardgrass 2 (barnyardgrass; 250 g/ha): 100
